# According to BigSolDB 2.1:
smiles,measurement,setting,value
O=c1cc(CBr)c2ccccc2[nH]1,solubility (mole fraction),"in 1,4-dioxane, 288.15 K",0.000504
same,solubility (mole fraction),"in 1,4-dioxane, 293.15 K",0.000625
same,solubility (mole fraction),"in 1,4-dioxane, 298.15 K",0.000767
same,solubility (mole fraction),"in 1,4-dioxane, 303.15 K",0.00092
same,solubility (mole fraction),"in 1,4-dioxane, 308.15 K",0.00111
same,solubility (mole fraction),"in 1,4-dioxane, 313.15 K",0.00137
same,solubility (mole fraction),"in 2-butanone, 273.15 K",0.000321
same,solubility (mole fraction),"in 2-butanone, 278.15 K",0.000365
same,solubility (mole fraction),"in 2-butanone, 283.15 K",0.000408
same,solubility (mole fraction),"in 2-butanone, 288.15 K",0.000455
same,solubility (mole fraction),"in 2-butanone, 293.15 K",0.000511
same,solubility (mole fraction),"in 2-butanone, 298.15 K",0.00057
same,solubility (mole fraction),"in 2-butanone, 303.15 K",0.000634
same,solubility (mole fraction),"in 2-butanone, 308.15 K",0.00071
same,solubility (mole fraction),"in 2-butanone, 313.15 K",0.000792
same,solubility (mole fraction),"in DMF, 273.15 K",0.00214
same,solubility (mole fraction),"in DMF, 278.15 K",0.00272
same,solubility (mole fraction),"in DMF, 283.15 K",0.00329
same,solubility (mole fraction),"in DMF, 288.15 K",0.00399
same,solubility (mole fraction),"in DMF, 293.15 K",0.00464
same,solubility (mole fraction),"in DMF, 298.15 K",0.00542
same,solubility (mole fraction),"in DMF, 303.15 K",0.00634
same,solubility (mole fraction),"in DMF, 308.15 K",0.00729
same,solubility (mole fraction),"in DMF, 313.15 K",0.00828
same,solubility (mole fraction),"in DMSO, 293.15 K",0.0141
same,solubility (mole fraction),"in DMSO, 298.15 K",0.0185
same,solubility (mole fraction),"in DMSO, 303.15 K",0.0232
same,solubility (mole fraction),"in DMSO, 308.15 K",0.0284
same,solubility (mole fraction),"in DMSO, 313.15 K",0.0338
same,solubility (mole fraction),"in NMP, 273.15 K",0.0044
same,solubility (mole fraction),"in NMP, 278.15 K",0.00524
same,solubility (mole fraction),"in NMP, 283.15 K",0.0062
same,solubility (mole fraction),"in NMP, 288.15 K",0.00719
same,solubility (mole fraction),"in NMP, 293.15 K",0.00827
same,solubility (mole fraction),"in NMP, 298.15 K",0.00939
same,solubility (mole fraction),"in NMP, 303.15 K",0.0108
same,solubility (mole fraction),"in NMP, 308.15 K",0.0125
same,solubility (mole fraction),"in NMP, 313.15 K",0.0143
same,solubility (mole fraction),"in acetonitrile, 273.15 K",8e-05
same,solubility (mole fraction),"in acetonitrile, 278.15 K",9e-05
same,solubility (mole fraction),"in acetonitrile, 283.15 K",0.000104
same,solubility (mole fraction),"in acetonitrile, 288.15 K",0.000118
same,solubility (mole fraction),"in acetonitrile, 293.15 K",0.000134
same,solubility (mole fraction),"in acetonitrile, 298.15 K",0.00015
same,solubility (mole fraction),"in acetonitrile, 303.15 K",0.000171
same,solubility (mole fraction),"in acetonitrile, 308.15 K",0.000196
same,solubility (mole fraction),"in acetonitrile, 313.15 K",0.000223
same,solubility (mole fraction),"in ethanol, 273.15 K",0.000173
same,solubility (mole fraction),"in ethanol, 278.15 K",0.000188
same,solubility (mole fraction),"in ethanol, 283.15 K",0.000206
same,solubility (mole fraction),"in ethanol, 288.15 K",0.000227
same,solubility (mole fraction),"in ethanol, 293.15 K",0.000247
same,solubility (mole fraction),"in ethanol, 298.15 K",0.000271
same,solubility (mole fraction),"in ethanol, 303.15 K",0.000301
same,solubility (mole fraction),"in ethanol, 308.15 K",0.000338
same,solubility (mole fraction),"in ethanol, 313.15 K",0.000385
same,solubility (mole fraction),"in isopropanol, 273.15 K",0.000136
same,solubility (mole fraction),"in isopropanol, 278.15 K",0.000154
same,solubility (mole fraction),"in isopropanol, 283.15 K",0.000177
same,solubility (mole fraction),"in isopropanol, 288.15 K",0.0002
same,solubility (mole fraction),"in isopropanol, 293.15 K",0.000224
same,solubility (mole fraction),"in isopropanol, 298.15 K",0.000248
same,solubility (mole fraction),"in isopropanol, 303.15 K",0.000279
same,solubility (mole fraction),"in isopropanol, 308.15 K",0.000316
same,solubility (mole fraction),"in isopropanol, 313.15 K",0.00036
same,solubility (mole fraction),"in methanol, 273.15 K",0.000113
same,solubility (mole fraction),"in methanol, 278.15 K",0.000129
same,solubility (mole fraction),"in methanol, 283.15 K",0.000146
same,solubility (mole fraction),"in methanol, 288.15 K",0.000165
same,solubility (mole fraction),"in methanol, 293.15 K",0.000186
same,solubility (mole fraction),"in methanol, 298.15 K",0.000207
same,solubility (mole fraction),"in methanol, 303.15 K",0.000234
same,solubility (mole fraction),"in methanol, 308.15 K",0.000265
same,solubility (mole fraction),"in methanol, 313.15 K",0.000303
same,solubility (mole fraction),"in n-butanol, 273.15 K",0.00029
same,solubility (mole fraction),"in n-butanol, 278.15 K",0.000311
same,solubility (mole fraction),"in n-butanol, 283.15 K",0.000333
same,solubility (mole fraction),"in n-butanol, 288.15 K",0.000361
same,solubility (mole fraction),"in n-butanol, 293.15 K",0.000391
same,solubility (mole fraction),"in n-butanol, 298.15 K",0.000425
same,solubility (mole fraction),"in n-butanol, 303.15 K",0.000461
same,solubility (mole fraction),"in n-butanol, 308.15 K",0.000508
same,solubility (mole fraction),"in n-butanol, 313.15 K",0.000558
same,solubility (mole fraction),"in n-propanol, 273.15 K",0.000224
same,solubility (mole fraction),"in n-propanol, 278.15 K",0.00024
same,solubility (mole fraction),"in n-propanol, 283.15 K",0.000262
same,solubility (mole fraction),"in n-propanol, 288.15 K",0.000283
same,solubility (mole fraction),"in n-propanol, 293.15 K",0.000309
same,solubility (mole fraction),"in n-propanol, 298.15 K",0.000341
same,solubility (mole fraction),"in n-propanol, 303.15 K",0.000379
same,solubility (mole fraction),"in n-propanol, 308.15 K",0.000425
same,solubility (mole fraction),"in n-propanol, 313.15 K",0.000476
same,solubility (mole fraction),"in toluene, 273.15 K",1.5e-05
same,solubility (mole fraction),"in toluene, 278.15 K",1.9e-05
same,solubility (mole fraction),"in toluene, 283.15 K",2.3e-05
same,solubility (mole fraction),"in toluene, 288.15 K",2.8e-05
same,solubility (mole fraction),"in toluene, 293.15 K",3.2e-05
same,solubility (mole fraction),"in toluene, 298.15 K",3.8e-05
same,solubility (mole fraction),"in toluene, 303.15 K",4.3e-05
same,solubility (mole fraction),"in toluene, 308.15 K",4.9e-05
same,solubility (mole fraction),"in toluene, 313.15 K",5.6e-05
